Values of other authors as cited in patent US11369558B1, “Multi-component nutritional supplement formulations and treatment regimen” (priority 2018, dated 2022).

Details: in the human body

Share of DMSO converted to MSM: approximately 15%
SMILES: C[S+](C)[O-] [DMSO, dimethyl sulfoxide]
